The values that follow come from paper PMC12667509, “Inhibition of Macrophage ARID3A Alleviates Myocardial Ischemia‐Reperfusion Injury After Heart Transplantation by Reducing THBS1/CD47 Signaling‐Mediated Neutrophil Extracellular Traps Formation” (Advanced Science, 2025).

This assay deals with T1, ARID3A (Homo sapiens, UniProt Q99856).
T1 construct: recombinant human protein immobilised on CM5 chip
T1 sequence (Q99856 1-593): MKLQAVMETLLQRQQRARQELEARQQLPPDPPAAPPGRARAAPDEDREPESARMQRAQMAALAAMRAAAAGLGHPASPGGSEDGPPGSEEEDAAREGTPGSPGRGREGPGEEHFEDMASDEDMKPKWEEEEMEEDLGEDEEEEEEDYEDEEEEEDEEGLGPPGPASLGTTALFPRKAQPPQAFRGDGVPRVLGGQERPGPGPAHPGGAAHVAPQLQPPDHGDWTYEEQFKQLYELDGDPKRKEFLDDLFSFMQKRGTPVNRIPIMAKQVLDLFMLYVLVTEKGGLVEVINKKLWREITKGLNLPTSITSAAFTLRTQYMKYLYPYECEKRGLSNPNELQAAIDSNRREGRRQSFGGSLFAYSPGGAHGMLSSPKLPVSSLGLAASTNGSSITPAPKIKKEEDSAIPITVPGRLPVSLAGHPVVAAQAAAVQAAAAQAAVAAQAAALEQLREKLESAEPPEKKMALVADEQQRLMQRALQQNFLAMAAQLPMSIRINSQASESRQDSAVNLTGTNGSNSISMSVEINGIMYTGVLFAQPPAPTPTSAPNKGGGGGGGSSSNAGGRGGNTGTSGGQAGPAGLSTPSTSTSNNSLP
In words: SPR (Biacore T200, CM5 chip, kinetic analysis). It counts as binding. Background: SPR reads the build-up and loss of mass on a sensor chip optically.

Each structure is given as a SMILES string. pKd: −log10 of the molar value.

In the case of `C=C(CC(=O)OCCCCCCCC)C(=O)O` [4‐OI, 4‐octyl itaconate], the pKd (usually −log10 of the Kd, conventionally taken in molar units) is 5.12.
